{
  "source": "patent US9096524B2",
  "about": "“Anthelmintic agents and their use” (Intervet International B.V., priority 2009, dated 2015)",
  "key": {"[1]": {"tested_on": "Haemonchus contortus larval stage 4, isolate with a resistance to benzimidazoles and ivermectin and anthelmintic-sensitive isolate", "assay": "Resistance-breaking activity against Haemonchus contortus L4 in vitro, resistant isolate compared with sensitive isolate", "type": "cell-based", "settings": "isolate resistant to benzimidazoles and ivermectin vs sensitive isolate", "method": "Anthelmintic resistance-breaking effects of compounds of this invention were tested in vitro using larval stage 4 (“L4”) of the parasitic nematode species Haemonchus contortus (Barber's pole worm in ruminants). One isolate of Haemonchus contortus with a resistance to benzimidazoles and ivermectin was tested in comparison to the anthelmintic-sensitive isolate of Haemonchus contortus. When conducting these experiments, various concentrations of the compounds were incubated in 96-well microtiter plates. Parasites were then distributed at 20 larvae per well. The anthelmintic effects were classified by microscopic examination. The microscopic examination included assessing mortality, damage, motility, progression of development, and neutral red uptake by the larvae in comparison to a DMSO-control and standard anthelmintics. The anthelmintic effects were defined by the minimum effective concentration (“MEC”)."}, "Haemonchus contortus [2]": {"tested_on": "Haemonchus contortus", "assay": "Efficacy against Haemonchus contortus in jirds", "type": "in vivo, jirds (Meriones unguiculatus)", "settings": "72 h, read-out: % Reduction in H.", "procedure,_shortened": "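Jirds orally infected with ~750-3,000 H. contortus L3 larvae were dosed once, orally or subcutaneously, at 2, 10 and/or 50 mg/kg on day 10 post-infection. Stomach larval burden was counted at necropsy 3 days post-treatment; efficacy is the reduction of mean count versus untreated infected controls.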"}, "[3]": {"tested_on": "A. galli (intestinal roundworm of chicken) larval stage 3; O. dentatum (nodular worm of swine) larval stages 3 and 4", "assay": "Activity against Ascaridia galli and Oesophagostomum dentatum larvae in vitro (minimum effective concentration)", "type": "cell-based"}, "Haemonchus contortus [4]": {"tested_on": "Haemonchus contortus", "assay": "Efficacy against Haemonchus contortus in sheep", "type": "in vivo", "settings": "oral, single treatment, worm burden in abomasum 7 days after treatment", "method": "Anthelmintic effects of compounds of this invention were tested in vivo using Haemonchus contortus in sheep. The sheep were orally infected with approximately 5,000 third-stage larvae of Haemonchus contortus. Thirty-five days after infection, the sheep in the treatment groups were treated once orally at a dose of 2, 5, 10, and/or 50 mg per kg bodyweight. Seven days after treatment, the sheep were necropsied, and the worm burden in the abomasum was determined. The efficacy was defined as the reduction of the mean worm count in the infected sheep of the treatment groups in comparison to the infected sheep in the untreated negative control group."}, "[5]": {"settings": "read-out: MEC (minimum effective concentration) against one or more of the tested nematodes, in vitro, one or more of A. galli L3, O. dentatum L3, L4, threshold 1 μM"}, "[6]": {"settings": "read-out: MEC (minimum effective concentration) against one or more of the tested nematodes, in vitro, one or more of A. galli L3, O. dentatum L3, L4, threshold 7 μM"}, "[7]": {"settings": "read-out: MEC (minimum effective concentration) against two or more of the tested nematodes, in vitro, two or more of A. galli L3, O. dentatum L3, L4, threshold 1 μM"}, "[8]": {"settings": "in vitro, one or more of A. galli L3, O. dentatum L3, L4, threshold 1 μM, read-out: MEC (minimum effective concentration) against one or more of the tested nematodes"}, "[9]": {"settings": "in vitro, one or more of A. galli L3, O. dentatum L3, L4, threshold 7 μM, read-out: MEC (minimum effective concentration) against one or more of the tested nematodes"}, "[10]": {"settings": "in vitro, two or more of A. galli L3, O. dentatum L3, L4, threshold 1 μM, read-out: MEC (minimum effective concentration) against two or more of the tested nematodes"}, "[11]": {"settings": "jirds, 50 mg/kg, oral, single treatment, larvae burden in stomach 3 days after treatment"}, "[12]": {"settings": "sc, jirds, 50 mg/kg, subcutaneous, single treatment, larvae burden in stomach 3 days after treatment"}},
  "note": "Where two headings read alike, the source gives them in different places.",
  "data": [
    {"smiles": "O=C(CCN1CCC(c2ccc(Oc3ccccc3)cc2)CC1)N1CCC(Oc2ccc([N+](=O)[O-])c(C(F)(F)F)c2)CC1", "note": "[Example 45, 1-[4-(4-nitro-3-trifluoromethyl-phenoxy)-piperidin-1-yl]-3-[4-(4-phenoxy-phenyl)-piperidin-1-yl]-propan-1-one]", "values": [
      {"measurement": "activity (MEC) against the resistant versus the sensitive isolate of Haemonchus contortus", "setting": "[1]", "value": "the same activity against the resistant and the sensitive isolate"},
      {"measurement": "inhibition in vivo at 50 mg/kg", "setting": "Haemonchus contortus [2]; po", "value": 94, "unit": "%"},
      {"measurement": "inhibition in vivo at 50 mg/kg", "setting": "Haemonchus contortus [2]; sc", "value": 94, "unit": "%"}
    ]},
    {"smiles": "O=C(CCCN1CCN(c2ccc(C(F)(F)F)cc2)CC1)N1CCC(Nc2ccc(SC(F)(F)F)cc2)CC1", "note": "[Example 48, 4-[4-(4-trifluoromethyl-phenyl)-piperazin-1-yl]-1-[4-(4-trifluoromethylsulfanyl-phenylamino)-piperidin-1-yl]-butan-1-one]", "values": [
      {"measurement": "minimal effective concentration", "setting": "[3]; [5]", "value": "< 1", "unit": "µM"},
      {"measurement": "minimal effective concentration", "setting": "[3]; [6]", "value": "< 7", "unit": "µM"},
      {"measurement": "minimal effective concentration", "setting": "[3]; [7]", "value": "< 1", "unit": "µM"},
      {"measurement": "activity (MEC) against the resistant versus the sensitive isolate of Haemonchus contortus", "setting": "[1]", "value": "the same activity against the resistant and the sensitive isolate"},
      {"measurement": "inhibition in vivo at 10 mg/kg", "setting": "Haemonchus contortus [2]; po", "value": 99, "unit": "%"},
      {"measurement": "inhibition in vivo at 10 mg/kg", "setting": "Haemonchus contortus [2]; sc", "value": 92, "unit": "%"}
    ]},
    {"smiles": "CC(CN1CCN(c2ccc(C(F)(F)F)cc2)CC1)C(=O)N1CCC(Nc2ccc([N+](=O)[O-])c(C(F)(F)F)c2)CC1", "note": "(stereo not shown) [Example 64, 2-methyl-1-[4-(4-nitro-3-trifluoromethyl-phenylamino)-piperidin-1-yl]-3-[4-(4-trifluoromethyl-phenyl)-piperazin-1-yl]-propan-1-one]", "values": [
      {"measurement": "minimal effective concentration", "setting": "[3]; [5]", "value": "< 1", "unit": "µM"},
      {"measurement": "minimal effective concentration", "setting": "[3]; [6]", "value": "< 7", "unit": "µM"},
      {"measurement": "minimal effective concentration", "setting": "[3]; [7]", "value": "< 1", "unit": "µM"},
      {"measurement": "activity (MEC) against the resistant versus the sensitive isolate of Haemonchus contortus", "setting": "[1]", "value": "the same activity against the resistant and the sensitive isolate"},
      {"measurement": "inhibition in vivo at 50 mg/kg", "setting": "Haemonchus contortus [2]; po", "value": 100, "unit": "%"},
      {"measurement": "inhibition in vivo at 50 mg/kg", "setting": "Haemonchus contortus [2]; sc", "value": 100, "unit": "%"},
      {"measurement": "% Reduction in H.", "setting": "Haemonchus contortus [4]; 10 mg/kg", "value": 75, "unit": "%"}
    ]},
    {"smiles": "N#Cc1ccc(NC2CCN(C(=O)CCN3CCN(c4ccc(Cl)cc4)CC3)CC2)cc1C(F)(F)F", "note": "[Example 325]", "values": [
      {"measurement": "minimal effective concentration", "setting": "[3]; [7]", "value": "< 1", "unit": "µM"},
      {"measurement": "activity (MEC) against the resistant versus the sensitive isolate of Haemonchus contortus", "setting": "[1]", "value": "the same activity against the resistant and the sensitive isolate"},
      {"measurement": "inhibition in vivo at 50 mg/kg", "setting": "Haemonchus contortus [2]; po", "value": 92, "unit": "%"},
      {"measurement": "inhibition in vivo at 50 mg/kg", "setting": "Haemonchus contortus [2]; sc", "value": 97, "unit": "%"},
      {"measurement": "% Reduction in H.", "setting": "Haemonchus contortus [4]; 50 mg/kg", "value": 96, "unit": "%"}
    ]},
    {"smiles": "COc1cc(NC2CCN(C(=O)CCN3CCN(c4ccc(Cl)cc4)CC3)CC2)ccc1[N+](=O)[O-]", "note": "[Example 385]", "values": [
      {"measurement": "minimal effective concentration", "setting": "[3]; [8]", "value": "< 1", "unit": "µM"},
      {"measurement": "minimal effective concentration", "setting": "[3]; [9]", "value": "< 7", "unit": "µM"},
      {"measurement": "minimal effective concentration", "setting": "[3]; [10]", "value": "< 1", "unit": "µM"},
      {"measurement": "inhibition in vivo at 50 mg/kg", "setting": "Haemonchus contortus [2]; [11]", "value": 0, "unit": "%"},
      {"measurement": "inhibition in vivo at 50 mg/kg", "setting": "Haemonchus contortus [2]; [12]", "value": 83, "unit": "%"}
    ]},
    {"smiles": "Cn1nnc(-c2ccc(NC3CCN(C(=O)CCN4CCN(c5ccc(C(C)(C)C)cc5)CC4)CC3)cc2)n1", "note": "[Example 444]", "values": [
      {"measurement": "minimal effective concentration", "setting": "[3]; [8]", "value": "< 1", "unit": "µM"},
      {"measurement": "minimal effective concentration", "setting": "[3]; [9]", "value": "< 7", "unit": "µM"},
      {"measurement": "minimal effective concentration", "setting": "[3]; [10]", "value": "< 1", "unit": "µM"},
      {"measurement": "inhibition in vivo at 50 mg/kg", "setting": "Haemonchus contortus [2]; [11]", "value": 78, "unit": "%"},
      {"measurement": "inhibition in vivo at 50 mg/kg", "setting": "Haemonchus contortus [2]; [12]", "value": 52, "unit": "%"}
    ]},
    {"smiles": "CCCc1ccc(C2CCN(CCC(=O)N3CCC(Oc4ccc([N+](=O)[O-])c(OCC)c4)CC3)CC2)cc1", "note": "[Example 579]", "values": [
      {"measurement": "minimal effective concentration", "setting": "[3]; [7]", "value": "< 1", "unit": "µM"},
      {"measurement": "inhibition in vivo at 50 mg/kg", "setting": "Haemonchus contortus [2]; po", "value": 96, "unit": "%"},
      {"measurement": "inhibition in vivo at 50 mg/kg", "setting": "Haemonchus contortus [2]; sc", "value": 96, "unit": "%"}
    ]}
  ]
}
